Assay results reported in patent US4757049A, “Process for using endogenous enkephalins and endorphins to stimulate the immune system of patients with aids” (TNI Pharmaceuticals, Inc., priority 1986, dated 1988).

Assays:
[1] = tested on: L1210 tumor cells; experiment: Survival of BDF1 mice inoculated with 1×10^6 L1210 cells, cis-platin with and without methionine-enkephalin; format: in vivo, mouse
Method: In order to test for any synergistic effect of using an endogenous enkephalin with a known chemo-therapeutic agent, a study involving the inoculation of groups of mice with massive doses (1×10^6) of L1210 tumor cells was performed in a manner analogous to the previous examples transferred in RPMI 1640 at pH 7.

[2] = tested on: phenylalanyl-t RNA synthetase; details: Laidow et al, J.B.C. 255 (1980); cited from earlier work

Question: What does the source list for `N.N.[Cl][Pt][Cl]` [Cis-platin, cis-platin]?
Answer: Median Day of Death ED50 ([1]; 1×10^6 cells, cis-platin 2 mg/Kg, Met-enkephalin 30 mg/Kg s.c.): 10 days; dead/tested, cumulative ([1]; 1×10^6 cells, cis-platin 2 mg/Kg, Met-enkephalin 30 mg/Kg s.c., day 9): 3/20; Median Day of Death ED50 ([1]; 1×10^6 cells, cis-platin 4 mg/Kg, Met-enkephalin 30 mg/Kg s.c.): 10 days; dead/tested, cumulative ([1]; 1×10^6 cells, cis-platin 8 mg/Kg single dose, Met-enkephalin 30 mg/Kg s.c., day 9): 2/20; Median Day of Death ED50 ([1]; 1×10^6 cells, cis-platin 8 mg/Kg, Met-enkephalin 30 mg/Kg s.c.): 12 days; dead/tested, cumulative ([1]; cis-platin 2 mg/Kg, Met-enkephalin 30 mg/Kg s.c., day 10): 13/20; dead/tested, cumulative ([1]; cis-platin 2 mg/Kg, Met-enkephalin 30 mg/Kg s.c., day 11): 14/20; dead/tested, cumulative ([1]; cis-platin 2 mg/Kg, Met-enkephalin 30 mg/Kg s.c., day 12): 15/20; dead/tested, cumulative ([1]; cis-platin 2 mg/Kg, Met-enkephalin 30 mg/Kg s.c., day 13): 17/20; dead/tested, cumulative ([1]; cis-platin 2 mg/Kg, Met-enkephalin 30 mg/Kg s.c., day 14): 19/20; dead/tested, cumulative ([1]; cis-platin 4 mg/Kg, Met-enkephalin 30 mg/Kg s.c., day 11): 10/20; dead/tested, cumulative ([1]; cis-platin 4 mg/Kg, Met-enkephalin 30 mg/Kg s.c., day 12): 15/20; dead/tested, cumulative ([1]; cis-platin 4 mg/Kg, Met-enkephalin 30 mg/Kg s.c., day 13): 19/20; dead/tested, cumulative ([1]; cis-platin 4 mg/Kg, Met-enkephalin 30 mg/Kg s.c., day 15): 20/20; dead/tested, cumulative ([1]; cis-platin 8 mg/Kg, Met-enkephalin 30 mg/Kg s.c., day 12): 4/20; dead/tested, cumulative ([1]; cis-platin 8 mg/Kg, Met-enkephalin 30 mg/Kg s.c., day 13): 7/20; dead/tested, cumulative ([1]; cis-platin 8 mg/Kg, Met-enkephalin 30 mg/Kg s.c., day 14): 12/20; dead/tested, cumulative ([1]; cis-platin 8 mg/Kg, Met-enkephalin 30 mg/Kg s.c., day 15): 16/20; dead/tested, cumulative ([1]; cis-platin 8 mg/Kg, Met-enkephalin 30 mg/Kg s.c., day 16): 18/20; dead/tested, cumulative ([1]; cis-platin 8 mg/Kg, day 18): 19/20; dead/tested, cumulative ([1]; cis-platin 8 mg/Kg, day 20): 20/20

Question: With beta-endorphin as the molecule, how does the “effect on phenylalanyl-t RNA synthetase” value [2] read?
Answer: inhibit
